Data taken from US8748423B2, “Compositions and methods for the prevention and treatment of cancer” (Kinex Pharmaceuticals, LLC, priority 2010, dated 2014).
Where “and” joins values, the source holds several entries; their conditions need not be identical. Identical values can stand only once. Entries after “also recorded” stand apart in the source; their conditions may differ.

Assays:
[1] = test system: SK-N-MC; assay: brain tumor cell line growth inhibition, SK-N-MC; format: cell-based; details: Homo sapiens, neuroepithelioma
Procedure: (§1) These GI50s were determined using standard tumor growth inhibition assays.

[2] = test system: LN-18; assay: brain tumor cell line growth inhibition, LN-18; format: cell-based; details: Homo sapiens; LN-18, glioblastoma; glioma
Procedure: as §1

[3] = test system: U87; assay: brain tumor cell line growth inhibition, U87; format: cell-based; details: Homo sapiens, U-87 MG; U87, glioblastoma; astrocytoma
Procedure: as §1

[4] = test system: GL261; assay: brain tumor cell line growth inhibition, GL261; format: cell-based; details: GL261, mouse glioblastoma
Procedure: as §1

[5] = test system: various brain tumor cell lines; assay: proliferation in various brain tumor cell lines; format: cell-based, human and mouse; details: all brain tumor cell lines evaluated
Procedure: Compound 76 is a synthetic, orally bioavailable, novel small molecule microtubule polymerization inhibitor with very high CNS penetration. The efficacy of Compound 76 as a novel anti-cancer agent is tested directly using mouse model of malignant glioma. Compound 76 is an orally administered tubulin polymerization inhibitor that binds to a novel site on heterodimeric tubulin, and to a novel conformation of the dimer. Compound 76 can inhibit Src signaling in tumors. Compound 76 has been evaluated in various brain tumor cell lines. […] When administered orally to mice at a dose of 10 mg/kg, the ratio of drug levels in the brain compared to plasma levels was 0.76, indicating excellent BBB penetration as in Example 1.
Compound 76 was evaluated in various human and mouse brain tumor cells derived from glioblastoma multiforme, astrocytoma and medulloblastoma. […] When administered to mice Compound 76 penetrated the brain by 76%, thereby successfully addressing the first major challenge in brain cancer drug discovery. Drugs which are used to treat brain tumors often penetrate only 20% or less.

[6] = test system: GL261 glioma; assay: intracranial GL261 glioma survival study; format: in vivo, C57BL/6 mice
Procedure: The studies were conducted in C57BL/6 mice. GL261 glioma cells (1×10^5 in 5 μl DMEM) were implanted intracranial coordinates: bregma, lateral 2.0 mm, anterior 1.2 mm, 3.0 mm depth dura. Treatment was initiated 3 days post implantation.
The median survival range and the log-rank (Mantel-Cox) statistical test results comparing the survival distributions of the samples.

[7] = test system: GL261 glioma; assay: orthotropic GL261 glioma model, immune-competent mice; format: in vivo, C57BL/6 mice
From the text: FIGS. 4A-C are a series of graphs showing the survival of C57BL6 mice with intracerebral GL261 glioma implants. Mice received intracerebral implants of 1×10^5 GL261 cells by stereotactic injection at 2 mm lateral, 1 mm anterior to bregma at 3 mm depth. After 4 days mice began indicated regimen of oral Compound 76. […] Compound 76 extended median survival from 21 to 29 days (range). n=10. […] Compound 76 extended median survival >100 days (range), with up to 60% of drug treated mice experiencing complete tumor regression, n=10. Long term survivors were confirmed tumor free by high field MRI in FIG. 6. […] See high field MRI in FIG. 6
(§2) Compound 76 was also evaluated in the orthotropic GL261 glioma model in immune-competent, syngeneic C57BL/6 mice. Mice implanted intracerebrally with 1×10^5 GL261 cells treated with vehicle alone (saline) have a median survival time (MeST) of 21 days (range 18-28). Mice treated by oral Compound 76 (30 mg/kg, b.i.d.) have a MeST of 30.5 days ranging 23-32 days. In contrast, when Compound 76 is given orally at (30 mg/kg, s.i.d.) the MeST increases to over 120 days, with more than 60% of the treatment group still alive 12 months later (p<0.0001). […] Further experiments were performed using a SCID version of C57BL/6 mice (B6.CB17-Prkdc^scid/SzJ), a mouse model of B6 background, but is immune-compromised.
as §2, with “was” for “was also”

O=C(Cc1ccc(-c2ccc(N3CCOCC3)cc2)cn1)NCc1cccc(F)c1 [Compound 76]
IC50 [1]: 0.13 nM | IC50 [2]: 2.9 nM | IC50 [3]: 9.7 nM | IC50 [4]: 8.8 nM | GI50 [5]: < 55 nM | Median survival ([6]; 15 mg/kg bid oral): 30.5 | survival Range ([6]; 15 mg/kg bid oral): 25-34 | Median survival ([6]; 30 mg/kg bid oral): 29 | survival Range ([6]; 30 mg/kg bid oral): 23-32 | residual tumor by MRI ([7]; 30 mg/kg s.i.d., C57BL/6 mice): no residual tumor is observed | histopathology of tumor site / residual GL261 glioma ([7]; Compound 76 treated mice): large areas of necrosis and lymphocytic infiltration; also recorded: lymphocytic infiltration of the tumor site | brain edema ([7]; compared with placebo or Temodar treated mice): much less brain edema | median survival time (MeST), range ([7]; oral 30 mg/kg, b.i.d.): 23 to 32 days | median survival time (MeST) ([7]; oral 30 mg/kg, b.i.d. (twice daily), vehicle 21 days, 30 mg/kg): 29 days and 30.5 days | treatment group still alive 12 months later ([7]; oral 30 mg/kg, s.i.d.): more than 60% | growth rate of intracerebral GL261 glioma ([7]; relative to control groups): very significantly slows the rate of tumor growth; also recorded: slows the growth rate | treated mice with complete tumor regression ([7]; single dose per day (s.i.d.)): up to 60%
